Reference: US20050009893A1, “Treatment of high blood pressure during the acute phase of a stroke” (Solvay Pharmaceuticals GmbH, priority 2001, published 2005)

Experiment: ACCESS study (acute candesartan cilexetil evaluation in stroke survivors): early antihypertensive treatment after acute stroke versus placebo
Assay type: in vivo
Conditions: 342 enrolled stroke patients
Excerpt: In order to clarify the question, the ACCESS study (acute candesarten cilexetil evaluation in stroke survivors) was conceived, which has now been completed.
The rational basis of the ACCESS study was the question whether early treatment of elevated blood pressure values in stroke treatment using a substance which affects the renin-angiotensin system in a blocking manner, could reduce the morbidity, mortality and neurological deficits resulting from such strokes. The main question posed related to the use of early antihypertensive treatment of patients with elevated blood pressure values after a stroke. […]
After enrollment of the patients in the study, a randomized therapy with candesartancilexetil or placebo was carried out. Depending upon the measured blood pressure values and patient specific criteria, the therapy was begun with once daily administration of one half to one tablet (corresponding to from 4 to 8 mg candesartancilexetil or placebo). […]

## CCOc1nc2cccc(C(=O)O)c2n1Cc1ccc(-c2ccccc2-c2nnn[nH]2)cc1 [candesartan]
Early treatment from 72 hours up to and including seven days after the stroke, placebo group first treated after one week (30 events)
  cardiovascular end point (number of events) in the course of a twelve month observation period: 17
Twelve month observation period, 17 vs. 30
  difference with respect to the cardiovascular end point in favor of early treatment versus placebo group: about 43%
